What was measured:
NCI/ADR-RES [1] = test: Synergistic cytotoxicity against human MCF7/ADR cells assessed as combination index at 0.5 uM after 72 hrs in presence of 0.25 uM doxorubicin by MTT assay; format: functional
MCF7 [2] = test: Induction of apoptosis in human MCF7 cells assessed as necrotic cells at 0.5 uM after 72 hrs by Annexin V-FITC/propidium iodide staining-based flow cytometric analysis (reference value: 6.2 %); format: functional
MCF7 [3] = test: Cell cycle arrest in human MCF7 cells assessed as accumulation at pre-G1 phase at 0.5 uM incubated for 72 hrs by PI staining based flow cytometric analysis (reference value: 1.6 +/- 0.2 %); format: functional
[4] = Selectivity index, ratio of IC50 for human MRC5 cells to IC50 for human HT29 cells; format: toxicity; settings: MRC5 cells versus HT29 cells, read-out: Ratio IC50
[5] = biological target: T1, ATP-dependent translocase ABCB1 (Homo sapiens, UniProt P08183); test: Inhibition of P-gp activity in human MCF7/ADR cells at 250 nM after 72 hrs by RT-PCR analysis relative to control; format: cell-based, NCI/ADR-RES; settings: nci/adr-res, 72 h, 0.25 µM
HT-29 = test: Cytotoxicity against human HT29 cells assessed as reduction in cell viability incubated for 72 hrs by MTT assay; settings: HT-29, 72 h
MCF7 [6] = test: Induction of apoptosis in human MCF7 cells assessed as late apoptotic cells at 0.125 uM after 72 hrs by Annexin V-FITC/propidium iodide staining-based flow cytometric analysis (reference value: 2.8 %); format: functional
MCF7 [7] = test: Cell cycle arrest in human MCF7 cells assessed as accumulation at S phase at 0.5 uM incubated for […] staining based flow cytometric analysis (reference value: […] +/- 2.6 %); format: functional
A2780 = test: Cytotoxicity against human A2780 cells assessed as reduction in cell viability incubated for 72 hrs by MTT assay; settings: A2780, 72 h
NCI/ADR-RES [8] = test: Synergistic cytotoxicity against human MCF7/ADR cells assessed as combination index at 0.5 uM after 72 hrs in presence of 0.5 uM doxorubicin by MTT assay; format: functional
NCI/ADR-RES [9] = test: Cytotoxicity against human MCF7/ADR cells assessed as reduction in cell viability incubated for 72 hrs in presence of doxorubicin by MTT assay; format: functional, cell-based
[10] = Selectivity index, ratio of IC50 for human MRC5 cells to IC50 for human MCF7 cells; format: toxicity; settings: MRC5 cells versus MCF7 cells, read-out: Ratio IC50
MCF7 [11] = test: Induction of apoptosis in human MCF7 cells assessed as necrotic cells at 0.250 uM after 72 hrs by Annexin V-FITC/propidium iodide staining-based flow cytometric analysis (reference value: 6.2 %); format: functional; settings: dose 0.25 µM
MCF7 [12] = test: Induction of apoptosis in human MCF7 cells assessed as late apoptotic cells at 0.5 uM after 72 hrs by Annexin V-FITC/propidium iodide staining-based flow cytometric analysis (reference value: 2.8 %); format: functional
NCI/ADR-RES [13] = test: Synergistic cytotoxicity against human MCF7/ADR cells assessed as combination index at 0.5 uM after 72 hrs in presence of 1 uM doxorubicin by MTT assay; format: functional
NCI/ADR-RES [14] = test: Synergistic cytotoxicity against human MCF7/ADR cells assessed as combination index at 1 uM after 72 hrs in presence of 0.5 uM doxorubicin by MTT assay; format: functional
MCF7 [15] = test: Induction of apoptosis in human MCF7 cells assessed as early apoptotic cells at 0.125 uM after 72 hrs by Annexin V-FITC/propidium iodide staining-based flow cytometric analysis (reference value: 4.6 %); format: functional
MCF7 [16] = test: Cell cycle arrest in human MCF7 cells assessed as accumulation at G2/M phase at 0.5 uM incubated for 72 hrs by PI staining based flow cytometric analysis (reference value: 15 +/- 1.5 %); format: functional
[17] = biological target: T1, ATP-dependent translocase ABCB1; test: Inhibition of P-gp activity in human MCF7/ADR cells at 500 nM after 72 hrs by RT-PCR analysis relative to control; format: cell-based, NCI/ADR-RES; settings: nci/adr-res, 72 h, 0.5 µM
MCF7 [18] = test: Induction of apoptosis in human MCF7 cells assessed as viable cells at 0.125 uM after 72 hrs by Annexin V-FITC/propidium iodide staining-based flow cytometric analysis (reference value: 86.4 %); format: functional; settings: read-out: Activity
MCF7 [19] = test: Cell cycle arrest in human MCF7 cells assessed as accumulation at G2/M phase at 0.125 uM incubated for […] staining based flow cytometric analysis (reference value: 15 +/- 1.5 %); format: functional
[20] = biological target: T1, ATP-dependent translocase ABCB1; test: Inhibition of P-gp in human MCF7/ADR cells assessed as increase in Rho123 accumulation measured after 2 hrs by flow cytometry; format: cell-based; settings: nci/adr-res
MCF7 [21] = test: Induction of apoptosis in human MCF7 cells assessed as necrotic cells at 0.125 uM after 72 hrs by Annexin V-FITC/propidium iodide staining-based flow cytometric analysis (reference value: 6.2 %); format: functional
MCF7 [22] = test: Induction of apoptosis in human MCF7 cells assessed as viable cells at 0.250 uM after 72 hrs by Annexin V-FITC/propidium iodide staining-based flow cytometric analysis (reference value: 86.4 %); format: functional; settings: read-out: Activity
MRC5 = test: Cytotoxicity against human MRC5 cells assessed as reduction in cell viability incubated for 72 hrs by MTT assay; settings: MRC5, 72 h
[23] = biological target: T1, ATP-dependent translocase ABCB1; test: Inhibition of P-gp activity in human MCF7/ADR cells after 72 hrs by RT-PCR analysis; format: cell-based; settings: nci/adr-res, at 125 to 1000 nM, dose 125-1000 nM
MCF7 [24] = test: Cell cycle arrest in human MCF7 cells assessed as accumulation at G1 phase at 0.125 uM incubated for 72 hrs by PI staining based flow cytometric analysis (reference value: 56.9 +/- 5.6 %); format: functional
MCF7 [25] = test: Cell cycle arrest in human MCF7 cells assessed as accumulation at G1 phase at 0.5 uM incubated for 72 hrs by PI staining based flow cytometric analysis (reference value: 56.9 +/- 5.6 %); format: functional
MCF7 [26] = test: Induction of apoptosis in human MCF7 cells assessed as early apoptotic cells at 0.5 uM after 72 hrs by Annexin V-FITC/propidium iodide staining-based flow cytometric analysis (reference value: 4.6 %); format: functional
NCI/ADR-RES [27] = test: Synergistic cytotoxicity against human MCF7/ADR cells assessed as combination index at 0.25 uM after 72 hrs in presence of 0.5 uM doxorubicin by MTT assay; format: functional
NCI/ADR-RES [28] = test: Synergistic cytotoxicity against human MCF7/ADR cells assessed as combination index at 0.25 uM after 72 hrs in presence of 0.25 uM doxorubicin by MTT assay; format: functional
MCF7 [29] = test: Induction of apoptosis in human MCF7 cells assessed as late apoptotic cells at 0.250 uM after 72 hrs by Annexin V-FITC/propidium iodide staining-based flow cytometric analysis (reference value: 2.8 %); format: functional; settings: dose 0.25 µM
[30] = Reversal of multidrug resistant activity in human MCF7/ADR cells assessed as reversal fold after 72 hrs by MTT assay; format: functional, NCI/ADR-RES
MCF7 [31] = test: Cell cycle arrest in human MCF7 cells assessed as accumulation at pre-G1 phase at 0.125 uM incubated for 72 hrs by PI staining based flow cytometric analysis (reference value: 1.6 +/- 0.2 %); format: functional
MCF7 [32] = test: Cytotoxicity against human MCF7 cells assessed as reduction in cell viability incubated for 72 hrs by MTT assay; format: functional, cell-based; settings: MCF7, 72 h

T1 sequence (P08183 whole entry): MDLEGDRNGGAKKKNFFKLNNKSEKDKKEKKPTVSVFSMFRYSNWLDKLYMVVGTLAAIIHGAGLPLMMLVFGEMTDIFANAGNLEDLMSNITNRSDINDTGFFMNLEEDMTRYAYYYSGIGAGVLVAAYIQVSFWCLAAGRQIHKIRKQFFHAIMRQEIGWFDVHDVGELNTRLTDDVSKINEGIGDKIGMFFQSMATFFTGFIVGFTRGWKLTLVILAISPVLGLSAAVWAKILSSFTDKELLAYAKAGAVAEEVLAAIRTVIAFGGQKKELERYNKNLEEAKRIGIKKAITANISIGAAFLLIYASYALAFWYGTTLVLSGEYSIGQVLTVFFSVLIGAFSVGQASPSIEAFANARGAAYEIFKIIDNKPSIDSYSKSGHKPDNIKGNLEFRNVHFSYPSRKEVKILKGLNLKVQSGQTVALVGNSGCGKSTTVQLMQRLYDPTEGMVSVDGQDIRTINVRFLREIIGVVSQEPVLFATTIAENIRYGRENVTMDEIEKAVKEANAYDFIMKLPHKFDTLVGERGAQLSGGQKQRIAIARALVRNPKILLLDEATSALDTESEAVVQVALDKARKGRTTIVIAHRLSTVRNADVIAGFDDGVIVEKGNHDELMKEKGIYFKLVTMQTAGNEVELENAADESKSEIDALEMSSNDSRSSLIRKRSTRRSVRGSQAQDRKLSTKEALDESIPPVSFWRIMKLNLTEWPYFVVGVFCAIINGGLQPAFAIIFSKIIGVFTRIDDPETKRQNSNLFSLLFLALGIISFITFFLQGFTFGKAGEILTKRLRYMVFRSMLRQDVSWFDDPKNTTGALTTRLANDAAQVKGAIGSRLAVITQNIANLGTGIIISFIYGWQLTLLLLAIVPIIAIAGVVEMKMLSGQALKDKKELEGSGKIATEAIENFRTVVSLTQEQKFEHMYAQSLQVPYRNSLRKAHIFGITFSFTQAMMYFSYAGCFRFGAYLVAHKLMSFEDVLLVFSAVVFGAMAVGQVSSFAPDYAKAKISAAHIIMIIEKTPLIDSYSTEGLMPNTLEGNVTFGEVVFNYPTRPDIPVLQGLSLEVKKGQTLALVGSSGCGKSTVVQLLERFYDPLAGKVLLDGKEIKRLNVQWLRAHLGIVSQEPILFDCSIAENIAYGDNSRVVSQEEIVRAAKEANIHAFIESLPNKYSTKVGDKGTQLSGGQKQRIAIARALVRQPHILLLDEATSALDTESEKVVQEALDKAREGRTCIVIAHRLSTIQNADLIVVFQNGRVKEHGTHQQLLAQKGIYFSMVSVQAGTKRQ

- inhibition (INH) [5]: 176%
- inhibition (INH) [17]: 190%
- inhibition (INH) [20]: Dose-Dependent Effect
- inhibition (INH) [23]: Dose-Dependent Effect
SMILES: N#Cc1c2n(c3c(=O)n(-c4ccccc4)cnc13)CCCC2
- CI (NCI/ADR-RES [1]): 1.9
- Activity (MCF7 [2]): 4.8%
- Activity (MCF7 [3]): 1.6%
- selectivity ratio [4]: 1.36
- IC50 (HT-29): 1070 nM
- Activity (MCF7 [6]): 1.7%
- Activity (MCF7 [7]): 4.1%
- IC50 (A2780): 60 nM
- CI (NCI/ADR-RES [8]): 1.7
- IC50 (NCI/ADR-RES [9]): 1170 nM
- selectivity ratio [10]: 4.83
- Activity (MCF7 [11]): 10.7%
- Activity (MCF7 [12]): 2.1%
- CI (NCI/ADR-RES [13]): 1.552
- CI (NCI/ADR-RES [14]): 0.08
- Activity (MCF7 [15]): 6.6%
- Activity (MCF7 [16]): 18.9%
- viability at 0.125 µM (MCF7 [18]): 86.3%
- Activity (MCF7 [19]): 15.5%
- Activity (MCF7 [21]): 5.4%
- viability at 0.25 µM (MCF7 [22]): 68.2%
- IC50 (MRC5): 1450 nM
- Activity (MCF7 [24]): 61%
- Activity (MCF7 [25]): 77.8%
- Activity (MCF7 [26]): 22.8%
- CI (NCI/ADR-RES [27]): 0.631
- CI (NCI/ADR-RES [28]): 0.927
- Activity (MCF7 [29]): 13.6%
- fold change (FC) [30]: 15.57
- Activity (MCF7 [31]): 1.6%
- IC50 (MCF7 [32]): 300 nM
